From patent US20150216870A1, “Combination of PI3K Inhibitor and C-Met Inhibitor” (Novartis AG, priority 2012, published 2015)

How the values were obtained:
A172 = experiment: CellTiter-Glo cell viability dose matrix in A172 glioblastoma cells; assay type: cell-based, human; details: A172 (PTEN mutant, low HGF)
Procedure: The PI3K inhibitor COMPOUND C and the c-MET receptor tyrosine kinase inhibitor 2-fluoro-N-methyl-4-[7-quinolin-6-yl-methyl)-imidazo[1,2-b][1,2,4]triazin-2yl]benzamide are evaluated in combination in glioblastoma tumor models. COMPOUND C (10 mM) and 2-fluoro-N-methyl-4-[7-quinolin-6-yl-methyl)-imidazo[1,2-b][1,2,4]triazin-2yl]benzamide (10 mM) are dissolved in DMSO, and are stored in aliquots at −20° C.
Human Glioblastoma cell lines, U-87 MG (PTEN mutant and HGF expressing line), H4 (PTEN mutant and HGF expressing line), A172 (PTEN mutant line with low HGF expression level) and LN-229 (PTEN wildtype and HGF low) are purchased from American Type Cell Collection and are maintained in a humidified incubator at 37° C. in 5% CO2 in recommended media. All four cell lines express detected MET at the mRNA level.
The cells are passaged twice a week and the medium is changed every 2 to 3 days. […]
Cell viability is determined by measuring cellular ATP content using the CellTiter-Glo® (CTG) luminescent cell viability assay (Promega). […] An equal volume of the CTG reagents is added to each well at the end of the compound treatment and luminescence is recorded on an Envision plate reader (Perkin Elmer). Reduced and enhanced luminescent signal values (responses) are calculated relative to untreated (control) cells. […]

[1] = system: U-87 MG human glioblastoma xenograft; experiment: U-87 MG xenograft tumor growth inhibition and tumor growth delay; assay type: in vivo, nude mice; details: for T/C or T/T0: D13; for Median TTE: endpoint 2000 mm3; for Regress.: PR: number of animals
Procedure: In this experiment, the U-87 MG human glioblastoma xenograft model is used to assess the anti-tumor efficacy of the PI3K inhibitor COMPOUND C and c-Met inhibitor 2-fluoro-N-methyl-4-[7-quinolin-6-yl-methyl)-imidazo[1,2-b][1,2,4]triazin-2yl]benzamide as single agents or in combination. U-87 MG tumor cells obtained from the National Cancer Institute are reported to be homozygous for likely oncogenic variants of CDKN2A, CDKN2C, CDKN2a, and PTEN; no mutations are detected in MET, PIK3CA, or 58 other genes that are frequently altered in neoplastic cells; and HGF expressing.
Mice are treated daily for 21 days with 17.7 and 35.3 mg/kg of the c-Met inhibitor and 32.7 mg/kg COMPOUND C monotherapies, and with the c-Met inhibitor/COMPOUND C dual therapy at 17.7:32.7. An c-Met inhibitor/COMPOUND C combination at the 58.8:5.4 mg/kg dose ratio was included in the study. The control mice received both vehicles, and a standard preclinical temozolomide regimen monitored tumor model performance. The oral treatments began on Day 1 (D1) in nude mice with established subcutaneous tumors. Each animal was euthanized when its tumor reached the predetermined 2000 mm3 endpoint volume, or on D60, whichever came first. The study was terminated on D51. […] Overall efficacy was determined from the times required for tumors to progress to the volume endpoint, and from D51 survival and regression rates. This report describes the methods and results of the U87MG-e326 tumor growth delay experiment.
The animals are fed ad libitum water (reverse osmosis, 1 ppm CI) and NIH 31 Modified and Irradiated Lab Diet® consisting of 18.0% crude protein, 5.0% crude fat, and 5.0% crude fiber. The mice are housed on irradiated Enrich-O'cobs™ Laboratory Animal Bedding in static microisolators on a 12-hour light cycle at 20-22° C. (68-72° F.) and 40-60% humidity.
The U-87 MG tumor line is obtained from the American Type Culture Collection and maintained by serial engraftment in nude mice. A tumor fragment (1 mm^3) is implanted subcutaneously into the right flank of each test mouse. Tumors are calipered in two dimensions to monitor growth as their mean volume approached the desired 100-150 mm^3 range. Tumor size, in mm^3, was calculated from: Tumor Volume=(width^2×length)/2, where width and length (in mm) are measurements of the tumor. Tumor weight can be estimated with the assumption that 1 mg is equivalent to 1 mm^3 of tumor volume. Fourteen days after tumor cell implantation, on D1 of the study, mice with individual tumor volumes of 63-196 mm^3 are sorted into seven groups, with group mean tumor volumes of 122-127 mm^3.
The c-Met inhibitor 2-fluoro-N-methyl-4-[7-quinolin-6-yl-methyl)-imidazo[1,2-b][1,2,4]triazin-2yl]benzamide (di-HCl salt, 84.98% free base) is stored at 4° C. and is added to deionized water at 2× the final concentration and sonicated until dissolved. An equal volume of 0.5% methylcellulose and 0.1% Tween® 80 in deionized water is added to provide a 5.884 mg/mL dosing solution in 0.25% methylcellulose and 0.05% Tween® 80 in deionized water (Vehicle 1). Portions of this solution are diluted with Vehicle 1 to provide 3.53 and 1.765 mg/mL dosing solutions.
COMPOUND C (HCl salt, 91.85% free base) is stored at −20° C. and is added to 1% Tween® 80 in deionized water and sonicated to obtain a uniform suspension at 2× the final concentration. […] The 0.544 mg/mL dosing suspension is obtained by diluting a portion of the first suspension with Vehicle 2.

[2] = Toxicity (body weight, deaths) in NCI-H1993 xenograft study; assay type: in vivo; details: c-Met inhibitor 17.7 mg/kg p.o. b.i.d. to end
Procedure: Animals are weighed on Days 1-5, on each treatment day (except weekends), and twice weekly thereafter, until the end of the study. The maximum group mean body weight (BW) loss is determined for the interval between D1 and D20 as well as for the entire study. Group mean BW nadir determinations exclude measurements taken after more than 50% of the assessable mice in the group have exited the study, and also exclude any animal that was classified as a non-treatment related (NTR) death during the study. Acceptable toxicity for the maximum tolerated dose (MTD) is defined as a group mean BW loss of less than 15% during the test, and not more than one TR death among ten animals. Any animal with BW losses exceeding 15% for three consecutive measurements, or with a BW loss exceeding 20% for one measurement, are euthanized, and classified as a TR death unless it was the first death in the group. A death is classified as NTR if there was no evidence that the death is related to treatment side effects and the death occurs more than 14 days after dosing ended. NTR deaths are categorized as NTRa (due to accident or error), NTRu (due to unknown causes), or NTRm (necropsy-confirmed tumor dissemination by invasion and/or metastasis). To conserve animals while providing maximum information, the first death in a group was classified as NTRu; such an NTR death was to be reclassified as TR if two subsequent TR deaths are recorded in the same group.

[3] = c-Met inhibitor 17.7 mg/kg (15 mg/kg free base) p.o. qd x21
[4] = c-Met inhibitor 35.3 mg/kg (30 mg/kg free base) p.o. qd x21

CNC(=O)c1ccc(-c2cnc3ncc(Cc4ccc5ncccc5c4)n3n2)cc1F [c-Met inhibitor]
anti-proliferative activity (single agent) (A172): completely inactive
increase of median TTE ([1]; c-Met inhibitor 15 mg/kg free base p.o. qd x21): 21.4 days
% TGD [1, 3]: 183%
T/C or T/T0 [1, 3]: 5%
T/C or T/T0 ([1]; c-Met inhibitor 17.7 mg/kg (15 mg/kg free base) p.o. qd x21, listed as c-Met inh.): 5%
Median TTE [1, 3]: 33.1 days
Regress.: PR ([1]; c-Met inhibitor 17.7 mg/kg p.o. qd x21): 4 PR
increase of median TTE ([1]; c-Met inhibitor 30 mg/kg free base p.o. qd x21): 23.4 days
% TGD [1, 4]: 200%
T/C or T/T0 [1, 4]: 1%
T/C or T/T0 ([1]; c-Met inhibitor 35.3 mg/kg (30 mg/kg free base) p.o. qd x21, listed as c-Met inh.): 1%
Median TTE [1, 4]: 35.1 days
Regress.: PR ([1]; c-Met inhibitor 35.3 mg/kg p.o. qd x21): 4 PR
Deaths: NTR [2]: (1 NTR)
deaths due to individual body weight losses [2]: One
